Measured values as given in paper PMC11908448 (Bioorganic chemistry, 2019).
Where two headings read alike, the source gives them in different places.

Legend:
[1] = biological target: T1, Bovine XO (Bos taurus, UniProt P80457); assay: Determination of inhibitory potency against XO activity; format: biochemical
[2] = biological target: T1, Bovine XO; settings: cited from earlier work

T1 sequence (P80457 whole entry): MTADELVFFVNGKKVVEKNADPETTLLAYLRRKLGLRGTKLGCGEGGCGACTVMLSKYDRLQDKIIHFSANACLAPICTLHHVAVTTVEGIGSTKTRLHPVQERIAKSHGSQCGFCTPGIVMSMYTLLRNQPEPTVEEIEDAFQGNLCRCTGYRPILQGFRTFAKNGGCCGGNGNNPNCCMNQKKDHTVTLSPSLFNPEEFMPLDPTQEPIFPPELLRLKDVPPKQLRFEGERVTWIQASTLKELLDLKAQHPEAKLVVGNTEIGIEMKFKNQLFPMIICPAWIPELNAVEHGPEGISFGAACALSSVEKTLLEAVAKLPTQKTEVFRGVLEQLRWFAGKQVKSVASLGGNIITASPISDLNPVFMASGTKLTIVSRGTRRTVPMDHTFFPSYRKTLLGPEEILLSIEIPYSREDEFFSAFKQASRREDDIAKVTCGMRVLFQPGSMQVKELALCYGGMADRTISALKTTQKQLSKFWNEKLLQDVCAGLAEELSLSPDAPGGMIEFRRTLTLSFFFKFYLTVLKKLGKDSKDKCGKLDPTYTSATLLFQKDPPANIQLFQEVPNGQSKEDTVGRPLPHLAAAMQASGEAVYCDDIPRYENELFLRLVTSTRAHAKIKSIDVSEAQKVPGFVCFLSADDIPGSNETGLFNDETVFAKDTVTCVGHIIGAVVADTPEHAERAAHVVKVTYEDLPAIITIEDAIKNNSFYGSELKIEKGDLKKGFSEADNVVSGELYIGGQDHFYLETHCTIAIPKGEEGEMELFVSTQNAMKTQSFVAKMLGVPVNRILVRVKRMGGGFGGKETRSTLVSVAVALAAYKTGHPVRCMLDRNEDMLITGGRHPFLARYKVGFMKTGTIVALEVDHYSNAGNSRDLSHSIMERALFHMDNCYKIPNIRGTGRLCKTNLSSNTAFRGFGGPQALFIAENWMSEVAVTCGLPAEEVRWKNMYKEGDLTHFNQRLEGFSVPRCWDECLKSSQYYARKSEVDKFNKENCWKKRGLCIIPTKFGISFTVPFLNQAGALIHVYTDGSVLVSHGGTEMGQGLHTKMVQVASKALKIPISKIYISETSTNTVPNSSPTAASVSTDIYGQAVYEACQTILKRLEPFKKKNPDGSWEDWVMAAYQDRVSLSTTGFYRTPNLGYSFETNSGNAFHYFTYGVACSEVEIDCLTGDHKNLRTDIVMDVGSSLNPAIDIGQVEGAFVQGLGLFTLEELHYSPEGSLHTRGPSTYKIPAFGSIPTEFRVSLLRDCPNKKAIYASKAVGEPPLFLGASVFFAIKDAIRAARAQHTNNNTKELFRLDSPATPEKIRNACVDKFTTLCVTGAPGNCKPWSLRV

SMILES | IC50 [1] [µM] | mode of XO inhibition ([2]; kinetic studies) | XO inhibitory potency (in words) ([2]; literature statement) | XO inhibitory potency (in words) ([1]; reported by others [41] or measured by the authors)
O=C(/C=C/c1ccc(O)c(O)c1)OCCc1ccccc1 [Compound 1, (E)-phenethyl 3-(3,4-dihydroxyphenyl)acrylate] | 3.9 | competitive inhibitor | low micromolar range | 
O=C(/C=C/c1ccc(O)c(O)c1)Oc1ccccc1 [Compound 8, (E)-phenyl 3-(3,4-dihydroxyphenyl)acrylate] | ~0.25 |  |  | 
Cc1nc(-c2ccc(OCC(C)C)c(C#N)c2)sc1C(=O)O [febuxostat, Febuxostat, reference compound] |  |  |  | low nanomolar or subnanomolar range
